Experimental data as given in patent publication US20150150851A1, “FORMULATION AND DOSING OF HSP90 INHIBITORY COMPOUNDS” (Synta Pharmaceuticals Corp., priority 2010, published 2015).
In brackets after ≈: the same amount, converted by molar mass.

Experiment: Equilibrium solubility in polysorbate 80 / PEG 300 mixtures (72 hours, HPLC)
Assay type: physicochemical
Conditions: organic solvent or mixture, thermodynamic from solid

solubility at 72 h (polysorbate 80 / PEG 300 mixture, 40% PEG 300, 60% polysorbate 80, equilibrated 72 hours): 76.1 mg/mL (≈ 209 mM)
solubility at 72 h (polysorbate 80 / PEG 300 mixture, 45% PEG 300, 55% polysorbate 80, equilibrated 72 hours): 84.7 mg/mL (≈ 232 mM)
solubility at 72 h (polysorbate 80 / PEG 300 mixture, 50% PEG 300, 50% polysorbate 80, equilibrated 72 hours): 96.2 mg/mL (≈ 264 mM)
solubility at 72 h (polysorbate 80 / PEG 300 mixtures, in all three polysorbate 80 / PEG 300 solutions): > 75 mg/mL
Compound: CC(C)c1cc(-c2n[nH]c(=O)n2-c2ccc3c(ccn3C)c2)c(O)cc1O [Compound 1, 3-(2,4-dihydroxy-5-isopropyl-phenyl)-4-(1-methyl-indol-5-yl)-5-hydroxy-[1,2,4] triazole]
